The values below come from patent US7396835B2, “Process for the preparation of tubulin inhibitors” (Wyeth, priority 2003, dated 2008).

Counter-ions that a name gives are not always drawn.

The data set in a line: Water uptake and stability of the succinate salt under relative humidity. The data set is classed as physicochemical. Particulars: about 20° C. to about 30° C. The procedure: To a suspension of NaH (40.9 g, 1.02 mol, 60% in oil) in anhydrous THF (750 mL) is added 3-methylamino-propan-1-ol (115 g, 1.21 mol) at about 20-30° C. dropwise over 30 min. The mixture is stirred for 30 min. Then, a solution of [5-chloro-6-(2,4,6-trifluoro-phenyl)-[1,2,4]triazolo[1,5-a]pyrimidin-7-yl]-((1S)-2,2,2-trifluoro-1-methyl-ethyl)-amine (150 g, 0.379 mol) in THF (150 mL) is added slowly over 15 min. The mixture is heated to 60° C. and stirred for 16 h, then cooled to 0-6° C. Cold water (1500 mL) is added dropwise while maintain the temperature between 10±3° C. THF is removed by distillation. The reaction mixture is extracted with t-butylmethyl ether (TBME, 2×1000 mL) and to the separated aqueous phase is added in portions succinic acid (296 g, 2.51 mol) is added in portions and followed by addition of TBME (1000 mL). The mixture is cooled to 3±3° C. and stirred for 1 h. The crude solid product is filtered, washed with cold water (150 mL) and TBME (2×400 mL). The wet solid is dissolved into water (2000 mL) at about 75° C. The solution is filtered at 60-70° C. and cooled to 0° C. over 1 h and stirred for 1 h at this temperature. The solid is filtered and dried at 35° C./10 mmHg for 20 h to give a white solid in anhydrous form (175 g, 80%, >99% HPLC area purity and 99% ee). […]

As for `CNCCCOc1cc(F)c(-c2c(Cl)nc3ncnn3c2N[C@@H](C)C(F)(F)F)c(F)c1` [Example 4, 5-Chloro-6-{2,6-difluoro-4-[3-(methylamino)propoxy]phenyl}-N-[(1S)-2,2,2-trifluoro-1-methylethyl][1,2,4]triazolo[1,5-a]pyrimidin-7-amine Succinate Salt Dihydrate], the “stability of the dihydrate” value (5%-100% relative humidity) is listed as “stable”. The “water absorbed by the anhydrous compound” value (anhydrous succinate salt, drying dish of 80%-100% relative humidity, 24 h, uptake then stopped) was determined as 5.8 % wt.
